According to ChEMBL document CHEMBL1131057, “Peptidomimetic growth hormone secretagogues. Design considerations and therapeutic potential” (J Med Chem, 1998):
pEC50, pIC50: −log10 of the molar value. Where a SMILES comes first, the peptide text is derived from it. [ ]: non-standard residue; d: D form. dTrp(2-Me) = Cc1[nH]c2ccccc2c1C[C@@H](N)C(=O)O; Trp(2-Me) = Cc1[nH]c2ccccc2c1C[C@H](N)C(=O)O; d2Nal = N[C@H](Cc1ccc2ccccc2c1)C(=O)O; 3Amb = NCc1cccc(C(=O)O)c1; GABA = NCCCC(=O)O

Experiments:
[1] = Compound was evaluated for oral bioavailability in human; assay type: ADME, organism-based; conditions: in vivo
[2] = Clearance rate is evaluated rats; assay type: ADME, organism-based; conditions: rat, in vivo; read-out: Clearance rate
[3] = Compound was evaluated for half-life in humans; assay type: ADME, organism-based; conditions: human, in vivo
[4] = Half-life was evaluated in rats; assay type: ADME, organism-based; conditions: rat, in vivo
Canis familiaris = test: Compound was tested for minimum effective dose in dogs through iv dose; assay type: functional; conditions: Canis lupus familiaris
Oxytocin receptor = molecular target: T1, Oxytocin receptor (Homo sapiens, UniProt P30559); test: Antagonistic activity against Oxytocin receptor; assay type: functional
T1 sequence (P30559 whole entry): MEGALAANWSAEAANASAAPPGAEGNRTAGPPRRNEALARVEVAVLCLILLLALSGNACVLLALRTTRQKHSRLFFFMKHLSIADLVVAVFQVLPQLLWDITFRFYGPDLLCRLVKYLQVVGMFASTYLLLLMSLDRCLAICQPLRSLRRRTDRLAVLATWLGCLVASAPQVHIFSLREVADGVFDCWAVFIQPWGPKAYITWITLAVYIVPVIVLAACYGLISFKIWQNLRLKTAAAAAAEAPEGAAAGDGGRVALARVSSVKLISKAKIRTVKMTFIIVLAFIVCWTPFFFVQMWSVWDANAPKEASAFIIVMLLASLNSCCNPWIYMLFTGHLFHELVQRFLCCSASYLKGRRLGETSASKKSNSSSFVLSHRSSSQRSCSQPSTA

Rattus norvegicus [5] = organism: Rattus norvegicus; test: In vitro efficacy was evaluated for growth hormone release
[6] = Compound was evaluated for percentage of Oral bioavailability in rats; assay type: ADME, organism-based; conditions: rat, in vivo, read-out: Bioavailabiility
Rattus norvegicus [7] = organism: Rattus norvegicus; test: compound was evaluated for GH release in the rat pituitary cell culture assay; assay type: functional; conditions: Pituitary gland cell
Rattus norvegicus [8] = test: Compound was measured for elevated levels of GH release in infant rats after administration subcutaneously at 300 ug/kg; assay type: functional, organism-based
Rattus norvegicus [9] = test: Compound was evaluated for GH releasing properties after iv administration to infant rats; assay type: functional, organism-based
[10] = Compound was evaluated for the half-life in rats; assay type: ADME, organism-based; conditions: rat, in vivo
Rattus norvegicus [11] = organism: Rattus norvegicus; test: compound was evaluated for GH release in the rat; assay type: functional, organism-based
[12] = Compound was evaluated for the systemic clearance rate in rats; assay type: ADME, organism-based; conditions: rat, in vivo; read-out: Clearance rate
Rattus norvegicus [13] = organism: Rattus norvegicus; test: compound was evaluated for GH release in rat; assay type: functional
Rattus norvegicus [14] = organism: Rattus norvegicus; test: In Vitro evaluation for growth hormone release from the pituitary incubates; assay type: functional
Rattus norvegicus [15] = organism: Rattus norvegicus; test: compound was evaluated for GH release in the rat pituitary cell; assay type: functional; conditions: Pituitary gland cell
[16] = Compound was evaluated percentage of Oral bioavailability in dogs; assay type: ADME, organism-based, Canis lupus familiaris; conditions: dog, in vivo
Rattus norvegicus [17] = organism: Rattus norvegicus; test: Compound was tested for GH releasing from cultured rat pituitary cells (maximal increase in 15 min); assay type: functional, Pituitary gland cell
[18] = In vitro efficacy was evaluated for growth hormone release

With `C[C@H](NC(=O)[C@@H](Cc1c[nH]c2ccccc12)NC(=O)[C@@H](N)Cc1c[nH]cn1)C(=O)N[C@@H](Cc1c[nH]c2ccccc12)C(=O)N[C@H](Cc1ccccc1)C(=O)N[C@@H](CCCCN)C(N)=O` (H-H[dW]AW[dF]K-NH2) the bioavailability [1] was 0.3%, the clearance [2] was 25 mL/min/kg and the half-life [3] was 20 min. It also gave a half-life [4] of 22 min and an MED (Canis familiaris) of 0.01 mg/kg.
Work on `C[C@@H](O)CN1CCC[C@@H](C(=O)NC2CC3CCC2(CS(=O)(=O)N2CCC4(CCc5ccccc54)CC2)C3(C)C)C1` (stereo partly drawn) yielded a pIC50 (Oxytocin receptor) of 6.89 and a pEC50 (Rattus norvegicus [5]) of 7.05.
Compound `CC(C)(N)CC(=O)N[C@@H]1CCc2c(ccc3ccccc23)N(Cc2ccc(-c3ccccc3-c3nn[nH]n3)cc2)C1=O` has a bioavailability [6] of under 5% and a pEC50 (Rattus norvegicus [5]) of 8.40.
Work on `C[C@@H](O)CNC(C)(C)CC(=O)N[C@@H]1CCc2ccccc2N(Cc2ccc(-c3ccccc3-c3nn[nH]n3)cc2)C1=O` [L-692585] yielded a pEC50 (Rattus norvegicus [5]) of 8.52.
Work on `NCCCC[C@H](NC(=O)[C@@H](Cc1ccccc1)NC(=O)[C@@H](Cc1ccc2ccccc2c1)NC(=O)c1cccc(CN)c1)C(N)=O` (H-[3Amb][d2Nal][dF]K-NH2) yielded a pEC50 (Rattus norvegicus [7]) of 8.15.
Work on `Cc1[nH]c2ccccc2c1C[C@H](NC(=O)[C@@H](Cc1c(C)[nH]c2ccccc12)NC(=O)[C@@H](Cc1c(C)[nH]c2ccccc12)NC(=O)CCCN)C(=O)N[C@@H](CCCCN)C(N)=O` (H-[GABA][dTrp(2-Me)][dTrp(2-Me)][Trp(2-Me)]K-NH2) yielded a Concentration (Rattus norvegicus [8]) of 200 ng/mL.
`Cc1[nH]c2ccccc2c1C[C@@H](NC(=O)CCCN)C(=O)N[C@H](Cc1ccc2ccccc2c1)C(=O)N[C@@H](Cc1ccccc1)C(=O)N[C@@H](CCCCN)C(N)=O` (H-[GABA][dTrp(2-Me)][d2Nal]FK-NH2) gave a Concentration (Rattus norvegicus [9]) of 198 ng/mL.
`C[C@H](NC(=O)[C@@H](Cc1ccc2ccccc2c1)NC(=O)[C@@H](C)N)C(=O)N[C@@H](Cc1c[nH]c2ccccc12)C(=O)N[C@H](Cc1ccccc1)C(=O)N[C@@H](CCCCN)C(N)=O` [PRALMORELIN] (H-[dA][d2Nal]AW[dF]K-NH2) gave a half-life [10] of 9 min, a pEC50 (Rattus norvegicus [11]) of 8.52 and a clearance [12] of 23 mL/min/kg.
With `C[C@@H]1CNC(C)(C)CC(=O)N[C@@H]2CCc3ccccc3N(Cc3ccc(cc3)-c3ccccc3C(=O)NCCCC(=O)O1)C2=O` the pEC50 (Rattus norvegicus [7]) was 7.68.
For `Cc1[nH]c2ccccc2c1C[C@@H](NC(=O)[C@@H](N)Cc1c[nH]cn1)C(=O)N[C@@H](C)C(=O)N[C@@H](Cc1c[nH]c2ccccc12)C(=O)N[C@H](Cc1ccccc1)C(=O)N[C@@H](CCCCN)C(N)=O` [EXAMORELIN] (H-H[dTrp(2-Me)]AW[dF]K-NH2), the Activity (Rattus norvegicus [13]) was 104 ng/mL.
In the case of `CSCC[C@@H](NC(=O)[C@H](Cc1ccccc1)NC(=O)CNC(=O)[C@H](Cc1ccccc1)NC(=O)[C@@H](N)Cc1ccc(O)cc1)C(N)=O`, the Concentration (Rattus norvegicus [14]) was 10 µg/mL.
Work on `O=C(N[C@H](Cc1ccc2ccccc2c1)C(=O)N[C@@H](CO)Cc1c[nH]c2ccccc12)C1CCNCC1` yielded a pEC50 (Rattus norvegicus [7]) of 7.97.
`CSCC[C@@H](NC(=O)[C@H](Cc1ccccc1)NC(=O)CNC(=O)[C@H](Cc1c[nH]c2ccccc12)NC(=O)[C@@H](N)Cc1ccc(O)cc1)C(N)=O` gave a Concentration (Rattus norvegicus [15]) of 10 µg/mL.
With `O=C(NC(Cc1c[nH]c2ccccc12)C(=O)N1CCC2(CCc3ccccc32)CC1)NC1CN2CCC1CC2` (stereo not drawn) [SPIROPIPERIDINE] the pIC50 (Rattus norvegicus [7]) was 7.30.
In the case of `CNC(=O)Nc1ccccc1-c1ccc2c(c1)CCN(C(=O)[C@@H](Cc1c[nH]c3ccccc13)NC(=O)C(C)(C)N)C2`, the pEC50 (Rattus norvegicus [7]) was 7.00.
`CC(C)(CC(=O)N[C@@H]1CCc2ccccc2N(Cc2ccc(-c3ccccc3C(N)=O)cc2)C1=O)NC[C@H](O)CO` gave a pEC50 (Rattus norvegicus [5]) of 8.52.
For `CC(C)(N)CC(=O)N[C@@H]1CCc2ccccc2N(Cc2ccc(-c3ccccc3-c3nn[nH]n3)cc2)C1=O`, the bioavailability [16] was under 5%, the Max (Rattus norvegicus [17]) was 300% and the pEC50 [18] was 7.22.
With `CNC(=O)Nc1ccccc1-c1ccc(CN2C(=O)[C@H](NC(=O)CC(C)(C)N)CCc3ccccc32)cc1` the pEC50 (Rattus norvegicus [7]) was 7.30.
